Laboratory results: patent US10975037B2 (priority 2018, dated 2021)
Read-outs that look alike come from different tables or passages of the source. Marks after values point to notes of the source that are not given here.

Columns and labels:
[1] = target: full-length human RORγt (Homo sapiens (Human), UniProt P51449); assay: RORγt (full-length human) reporter assay, conditions A or B, HEK293T cells; type: cell-based; conditions: for inhibition at 2 µM: 2 μM compound concentration
Summary of the method: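 Dual-luciferase read-out was taken after an overnight (16–20 h) compound exposure. Firefly data were scaled between DMSO-only and saturating reference compound, Renilla-normalized, then plotted against concentration for IC50.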

[2] = target: human RORγt ligand binding domain (RORγt LBD) (Homo sapiens (Human), UniProt P51449); assay: RORγt ThermoFluor® assay (thermal shift binding)
Summary of the method: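 Thermal shift with 0.065 mg/mL RORγt LBD and 60 μM 1,8-ANS in 100 mM Hepes pH 7.0, 10 mM NaCl, 2.5 mM GSH, 0.002% Tween-20.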

[3] = HEK293T cells, read-out: RORγt (FL) Reporter Assay A or B, IC50
[4] = read-out: ThermoFluor® Assay, Kd
[5] = HEK-293T, read-out: RORγt (FL) Reporter Assay A or B, % inhibition
[6] = RORγt (FL) Reporter Assay A or B, IC50, HEK293T cells
[7] = HEK-293T, 0.67 μM compound concentration (footnote ****), read-out: RORγt (FL) Reporter Assay A or B, % inhibition

human RORγt ligand binding domain (RORγt LBD), sequence (P51449 other isoform, or with tags, fused parts or gaps): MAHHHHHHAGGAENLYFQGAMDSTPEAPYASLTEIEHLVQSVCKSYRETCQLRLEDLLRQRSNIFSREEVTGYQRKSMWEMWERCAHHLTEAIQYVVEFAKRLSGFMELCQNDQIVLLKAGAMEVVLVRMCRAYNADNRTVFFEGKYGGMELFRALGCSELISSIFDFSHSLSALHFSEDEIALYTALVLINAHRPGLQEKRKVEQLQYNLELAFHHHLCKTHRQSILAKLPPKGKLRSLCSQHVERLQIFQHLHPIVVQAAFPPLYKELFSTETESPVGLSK
full-length human RORγt, sequence (P51449 other isoform, or with tags, fused parts or gaps): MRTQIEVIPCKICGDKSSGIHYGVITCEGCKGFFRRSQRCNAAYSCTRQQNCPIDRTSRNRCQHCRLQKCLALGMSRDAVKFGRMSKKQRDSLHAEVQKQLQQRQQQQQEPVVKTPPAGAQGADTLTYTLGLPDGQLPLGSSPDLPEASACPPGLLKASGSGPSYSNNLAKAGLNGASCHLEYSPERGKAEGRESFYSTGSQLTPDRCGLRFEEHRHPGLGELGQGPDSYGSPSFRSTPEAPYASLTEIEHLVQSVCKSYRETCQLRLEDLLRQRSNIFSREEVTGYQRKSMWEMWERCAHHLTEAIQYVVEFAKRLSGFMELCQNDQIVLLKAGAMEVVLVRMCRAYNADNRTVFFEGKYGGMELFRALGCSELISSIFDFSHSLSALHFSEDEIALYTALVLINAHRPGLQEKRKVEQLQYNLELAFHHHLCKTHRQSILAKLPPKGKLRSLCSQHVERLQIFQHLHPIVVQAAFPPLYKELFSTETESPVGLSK

Compound | Kd [2, 4] | inhibition at 2 µM [1, 5] | IC50 [1, 6] | other results
CCn1nc(C(=O)NC[C@]2(O)CC[C@H](S(C)(=O)=O)CC2)c(Cl)c1-c1ccc(N[C@H](C)C(F)(F)F)cc1OC [Example 220, 4-Chloro-1-ethyl-N-(((1r,4R)-1-hydroxy-4-(methylsulfonyl)cyclohexyl)methyl)-5-(2-methoxy-4-(((R)-1,1,1-trifluoropropan-2-yl)amino)phenyl)-1H-pyrazole-3-carboxamide] | 430 nM |  |  | RORγt (FL) Reporter Assay A or B, % inhibition @ 6 μM ([1]; 6 μM compound concentration): 90%; IC50 [1, 3]: 1100 nM
CCn1nc(C(=O)NC[C@H]2CC[C@H](S(C)(=O)=O)CC2)c(Cl)c1-c1ccc(N2CC(C(F)(F)F)C2)cc1OC [Example 208, 4-Chloro-1-ethyl-5-(2-methoxy-4-(3-(trifluoromethyl)azetidin-1-yl)phenyl)-N-(((1r,4r)-4-(methylsulfonyl)cyclohexyl)methyl)-1H-pyrazole-3-carboxamide] | 40 nM | 87% | 150 nM | 
CCn1nc(C(=O)NC[C@]2(O)CC[C@@H](S(C)(=O)=O)CC2)c(C#N)c1-c1ccc(CC(C)(C)C(F)(F)F)cc1OC [Example 126, 4-Cyano-1-ethyl-N-(((1s,4s)-1-hydroxy-4-(methylsulfonyl)cyclohexyl)methyl)-5-(2-methoxy-4-(3,3,3-trifluoro-2,2-dimethylpropyl)phenyl)-1H-pyrazole-3-carboxamide] | 12 nM |  | 84 nM | inhibition at 6 µM ([1]; HEK-293T, read-out: RORγt (FL) Reporter Assay A or B, % inhibition @ 6 μM): 101%
CCn1nc(C(=O)NC[C@]2(O)CC[C@H](S(C)(=O)=O)C[C@H]2O)c(Cl)c1-c1ccc(CC(C)(C)C(F)(F)F)cc1OC(F)F (single isomer, unassigned) [Example 48, 4-Chloro-5-(2-(difluoromethoxy)-4-(3,3,3-trifluoro-2,2-dimethylpropyl)phenyl)-N-(((1R*,2R*4S*)-1,2-dihydroxy-4-(methylsulfonyl)cyclohexyl)methyl)-1-ethyl-1H-pyrazole-3-carboxamide] |  | 95% | 61 nM | Kd ([2]; ThermoFluor® Assay, Kd): 31 nM
CCCn1nc(C(=O)NC[C@]2(O)CC[C@@H](S(C)(=O)=O)CC2)c(Cl)c1-c1ccc(C[C@@H](C)C(F)(F)F)cc1OC (single isomer, unassigned) [Example 42, 4-Chloro-N-(((1s,4S)-1-hydroxy-4-(methylsulfonyl)cyclohexyl)methyl)-5-(2-methoxy-4-((R*)-3,3,3-trifluoro-2-methylpropyl)phenyl)-1-propyl-1H-pyrazole-3-carboxamide] |  | 101% | 9 nM | Kd ([2]; ThermoFluor® Assay, Kd): 0.42 nM
CCn1nc(C(=O)NC[C@]2(O)CC[C@@H](S(C)(=O)=O)CC2)c(Cl)c1-c1ccc(N[C@H](C)C(F)(F)F)cc1OC [Example 24, 4-Chloro-1-ethyl-N-(((1s,4S)-1-hydroxy-4-(methylsulfonyl)cyclohexyl)methyl)-5-(2-methoxy-4-(((R)-1,1,1-trifluoropropan-2-yl)amino)phenyl)-1H-pyrazole-3-carboxamide] | 21 nM | 104% | 52 nM | 
CCn1nc(C(=O)NC[C@H]2CC[C@H](S(C)(=O)=O)CC2)c(Cl)c1-c1ccc(CC(C)(C)C(F)(F)F)cc1 [Example 168, 4-Chloro-1-ethyl-N-(((1r,4r)-4-(methylsulfonyl)cyclohexyl)methyl)-5-(4-(3,3,3-trifluoro-2,2-dimethylpropyl)phenyl)-1H-pyrazole-3-carboxamide] | 4 nM |  | 18 nM | inhibition at […] ([1]; HEK-293T, 0.22 μM compound concentration (footnote *******), read-out: RORγt (FL) Reporter Assay A or B, % inhibition): 71%
CCn1nc(C(=O)NC[C@H]2CC[C@H](S(C)(=O)=O)CC2)c(Cl)c1-c1ccc(CCCC(F)(F)F)cc1OC [Example 80, 4-Chloro-1-ethyl-5-(2-methoxy-4-(4,4,4-trifluorobutyl)phenyl)-N-(((1r,4r)-4-(methylsulfonyl)cyclohexyl)methyl)-1H-pyrazole-3-carboxamide] | 2.3 nM | 89% | 6 nM | 
CCS(=O)(=O)[C@H]1CC[C@H](CNC(=O)c2nn(C)c(-c3ccc(CC(C)(C)C(F)(F)F)cc3OC(F)F)c2Cl)CC1 [Example 156, 4-Chloro-5-(2-(difluoromethoxy)-4-(3,3,3-trifluoro-2,2-dimethylpropyl)phenyl)-N-(((1r,4r)-4-(ethylsulfonyl)cyclohexyl)methyl)-1-methyl-1H-pyrazole-3-carboxamide] | 1.5 nM |  | 20 nM | inhibition at […] ([1]; HEK-293T, 0.33 μM compound concentration (footnote *****), read-out: RORγt (FL) Reporter Assay A or B, % inhibition): 89%
Cn1nc(C(=O)NC[C@@]2(O)CC[C@H](S(C)(=O)=O)C[C@@H]2O)c(Cl)c1-c1ccc(CC(C)(C)C(F)(F)F)cc1OC(F)F (relative stereo) [Example 153, 4-Chloro-5-(2-(difluoromethoxy)-4-(3,3,3-trifluoro-2,2-dimethylpropyl)phenyl)-N-(((1S*,2S*,4S*)-1,2-dihydroxy-4-(methylsulfonyl)cyclohexyl)methyl)-1-methyl-1H-pyrazole-3-carboxamide] |  |  | 49 nM | inhibition at 3 µM ([1]; HEK-293T, 3 μM compound concentration (footnote *), read-out: RORγt (FL) Reporter Assay A or B, % inhibition): 85%; Kd ([2]; ThermoFluor® Assay, Kd): 9 nM
CCn1nc(C(=O)NC[C@H]2CC[C@H](S(C)(=O)=O)CC2)c(Cl)c1-c1ccc(CCC(F)(F)F)cc1OC [Example 38, 4-Chloro-1-ethyl-5-(2-methoxy-4-(3,3,3-trifluoropropyl)phenyl)-N-(((1r,4r)-4-(methylsulfonyl)cyclohexyl)methyl)-1H-pyrazole-3-carboxamide] | 3.3 nM |  | 12 nM | inhibition at 0.67 µM [1, 5]: 84%
CCn1nc(C(=O)NC[C@H]2CC[C@H](S(C)(=O)=O)CC2)c(Cl)c1-c1c(F)cc(CC(C)C(F)(F)F)cc1F (some centres unmarked) [Example 197, 4-Chloro-5-(2,6-difluoro-4-(3,3,3-trifluoro-2-methylpropyl)phenyl)-1-ethyl-N-(((1r,4r)-4-(methylsulfonyl)cyclohexyl)methyl)-1H-pyrazole-3-carboxamide] | 2 nM |  | 21 nM | inhibition at 0.67 µM [1, 7]: 70%
CCn1nc(C(=O)NC[C@]2(O)CC[C@@H](S(C)(=O)=O)CC2)c(Cl)c1-c1ccc(CC(C)(C)C(F)(F)F)cc1Cl [Example 164, 4-Chloro-5-(2-chloro-4-(3,3,3-trifluoro-2,2-dimethylpropyl)phenyl)-1-ethyl-N-(((1s,4s)-1-hydroxy-4-(methylsulfonyl)cyclohexyl)methyl)-1H-pyrazole-3-carboxamide] | 0.5 nM |  | 6.6 nM | 
CCC(=O)NS(=O)(=O)[C@H]1CC[C@H](CNC(=O)c2nn(CC)c(-c3ccc(CC(C)(C)C(F)(F)F)cc3OC(F)F)c2Cl)CC1 [Example 70, 4-Chloro-5-(2-(difluoromethoxy)-4-(3,3,3-trifluoro-2,2-dimethylpropyl)phenyl)-1-ethyl-N-(((r,4r)-4-(N-propionylsulfamoyl)cyclohexyl)methyl)-1H-pyrazole-3-carboxamide] | 0.72 nM |  |  | RORγt (FL) Reporter Assay A or B, % inhibition ([1]; 3 μM compound concentration (footnote *)): 103* %; IC50 [1, 3]: 23 nM
Cn1nc(C(=O)NC[C@]2(O)CC[C@@H](S(C)(=O)=O)CC2)c(Cl)c1-c1ccc(CC(C)(C)C(F)(F)F)cc1OC(F)F [Example 154, 4-Chloro-5-(2-(difluoromethoxy)-4-(3,3,3-trifluoro-2,2-dimethylpropyl)phenyl)-N-(((1s,4s)-1-hydroxy-4-(methylsulfonyl)cyclohexyl)methyl)-1-methyl-1H-pyrazole-3-carboxamide] | 0.79 nM |  | 4.5 nM | inhibition at 0.67 µM [1, 7]: 91%
